Measured values taken from PMC12527922, “Cocaine chemogenetics blunts drug-seeking by synthetic physiology” (Nature, 2025).
Several values for one entry are separate records, joined by “and”; a condition that tells them apart may be missing. Identical values can stand only once.

Target: coca-5HT3 (α7(L141G,G175K,Y210F,Y217F)–5HT3) (Homo sapiens, UniProt P36544, G175K/L141G/Y210F/Y217F)
Assay: Membrane potential assay, coca-5HT3 in HEK293
Details: for Max normalized Response / Response: coca-5HT3; for Max normalized Response: ED Fig 3b; for activation of coca-5HT3: membrane potential assay dose response
[1] = coca5HT3, Choline Conc 1.37174 uM
[2] = coca5HT3, Choline Conc 12.3457 uM
[3] = coca5HT3, Choline Conc 37.037 uM
[4] = coca5HT3, Choline Conc 111.111 uM
[5] = coca5HT3, Choline Conc 333.333 uM

Sequence of coca-5HT3 (α7(L141G,G175K,Y210F,Y217F)–5HT3) (P36544 23-224 L141G/G175K/Y210F/Y217F): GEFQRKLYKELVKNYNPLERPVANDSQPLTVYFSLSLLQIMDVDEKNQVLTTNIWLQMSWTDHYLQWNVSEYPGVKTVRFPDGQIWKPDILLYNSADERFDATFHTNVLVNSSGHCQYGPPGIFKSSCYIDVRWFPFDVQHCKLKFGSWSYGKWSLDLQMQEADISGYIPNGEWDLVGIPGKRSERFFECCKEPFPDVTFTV
Sequence of coca-5HT3 (α7(L141G,G175K,Y210F,Y217F)–5HT3) (P23979 242-489, further chain): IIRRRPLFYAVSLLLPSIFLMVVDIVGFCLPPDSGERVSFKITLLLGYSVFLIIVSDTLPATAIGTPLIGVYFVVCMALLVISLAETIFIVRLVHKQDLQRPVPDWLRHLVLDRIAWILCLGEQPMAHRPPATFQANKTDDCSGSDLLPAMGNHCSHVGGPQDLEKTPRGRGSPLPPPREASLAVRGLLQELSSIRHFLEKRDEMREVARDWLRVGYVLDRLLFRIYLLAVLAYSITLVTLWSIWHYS

C[N+](C)(C)CCO [choline]
EC50 relative to peak physiological levels (EC50 above peak physiological levels): about 100 fold | Max normalized response, AVG [1]: 0.0611 | Max normalized response, replicates [1]: 0.1043 and 0.06655 and 0.04444 and 0.02913 | Response, dose-response replicates (DR 1-4) [1]: 0.056 and 0.037 and 0.008 and 0.006 | Max normalized response, AVG [2]: 0.06296 | Max normalized response, replicates [2]: 0.05773 and 0.04496 and 0.02778 and 0.1214 | Response, dose-response replicates (DR 1-4) [2]: 0.031 and 0.025 (2×) and 0.005 | Max normalized response, AVG [3]: 0.0516 | Max normalized response, replicates [3]: 0.04283 and 0.03237 and 0.07778 and 0.0534 | Response, dose-response replicates (DR 1-4) [3]: 0.023 and 0.018 and 0.014 and 0.011 | Max normalized response, AVG [4]: 0.04734 | Max normalized response, replicates [4]: 0.03724 and 0.04317 and 0.05556 and 0.0534 | Response, dose-response replicates (DR 1-4) [4]: 0.02 and 0.024 and 0.01 and 0.011 | Max normalized response, AVG [5]: 0.07674 | Max normalized response, replicates [5]: 0.0838 and 0.08993 and 0.05556 and 0.07767 | Response, dose-response replicates (DR 1-4) [5]: 0.045 and 0.05 and 0.01 and 0.016 | Max normalized response, AVG (coca5HT3, Choline Conc 1000 uM): 0.4005 | Max normalized response, replicates (coca5HT3, Choline Conc 1000 uM): 0.4022 and 0.5288 and 0.3556 and 0.3155 | Response, dose-response replicates (DR 1-4) (coca5HT3, Choline Conc 1000 uM): 0.216 and 0.294 and 0.064 and 0.065 | Max normalized response, AVG (coca5HT3, Choline Conc 3000 uM): 1 | Max normalized response, replicates (coca5HT3, Choline Conc 3000 uM): 1 | Response, dose-response replicates (DR 1-4) (coca5HT3, Choline Conc 3000 uM): 0.537 and 0.556 and 0.18 and 0.206 | max response of each dose-response replicate (coca5HT3, Choline, used for normalization): 0.537 and 0.556 and 0.18 and 0.206 | EC50 (half-maximum effective concentration (EC50), HEK293, fluorescence membrane potential assay): 1210 µM

CCCC[N+]1(C)[C@@H]2C[C@@H](OC(=O)[C@H](CO)c3ccccc3)C[C@H]1[C@@H]1O[C@@H]12 (some centres unmarked) [n-Butylscopolamine]
Max normalized Response (conc 0.137 uM): 0.07428 | Max normalized Response (conc 3.7 uM): 0.05731 | Max normalized Response (conc 11.1 uM): 0.07366 | Max normalized Response (conc 33.3 uM): 0.04125 | Max normalized Response (conc 100 uM): 0.03532

NCCc1c[nH]c2ccc(O)cc12 [Serotonin]
Response (conc 1.37174 uM, ED Fig 3a): 0.295 | Response (conc 12.3457 uM, ED Fig 3a): 0.101 | Response (conc 37.037 uM, ED Fig 3a): 0.082 | Response (conc 111.111 uM, ED Fig 3a): 0.115 | Response (conc 333.333 uM, ED Fig 3a): 0.156 | Response (conc 1000 uM, ED Fig 3a): 0.112

O=C(O[C@H]1C[C@H]2CC[C@@H](C1)[N+]21CCCC1)C(O)(c1ccccc1)c1ccccc1 [Trospium]
Max normalized Response (conc 0.137 uM): 0.127 | Max normalized Response (conc 3.7 uM): 0.2063 | Max normalized Response (conc 11.1 uM): 0.1005 | Max normalized Response (conc 33.3 uM): 0.1217 | Max normalized Response (conc 100 uM): 0.03704

CC(N)Cc1ccccc1 (centres unmarked) [amphetamine]
Response (conc 0.0137 uM, ED Fig. 2c): 0.05 | Response (conc 0.123 uM, ED Fig. 2c): 0.058 | Response (conc 0.37 uM, ED Fig. 2c): 0.049 | Response (conc 10 uM, ED Fig. 2c): 0.028 | Response (conc 30 uM, ED Fig. 2c): 0.055 | activation of coca-5HT3: did not activate

C[N+]1(C)[C@@H]2C[C@@H](OC(=O)C(O)(c3cccs3)c3cccs3)C[C@H]1[C@@H]1O[C@@H]12 [Tiotropium]
Max normalized Response (conc 0.137 uM): 0.05284 | Max normalized Response (conc 3.7 uM): 0.03225 | Max normalized Response (conc 11.1 uM): 0.04379 | Max normalized Response (conc 33.3 uM): 0.159 | Max normalized Response (conc 100 uM): 0.2432

CN1[C@H]2CC[C@@H]1[C@@H](C(=O)O)[C@@H](OC(=O)c1ccccc1)C2 [benzoyl ecgonine]
Response (conc 0.0137174 uM, ED Fig. 2b): 0.07 | Response (conc 0.123457 uM, ED Fig. 2b): 0.088 | Response (conc 0.37037 uM, ED Fig. 2b): 0.072 | Response (conc 1.11111 uM, ED Fig. 2b): 0.062 | Response (conc 3.33333 uM, ED Fig. 2b): 0.097 | Response (conc 10 uM, ED Fig. 2b): 0.074 | Response (conc 30 uM, ED Fig. 2b): 0.088 | activation of coca-5HT3: not activated

NC[C@H](O)c1ccc(O)c(O)c1 [Norepinephrine]
Response (conc 0.457247 uM, ED Fig 3a): 0.151 | Response (conc 1.37174 uM, ED Fig 3a): 0.081 | Response (conc 12.3457 uM, ED Fig 3a): 0.077 | Response (conc 37.037 uM, ED Fig 3a): 0.059 | Response (conc 111.111 uM, ED Fig 3a): 0.059 | Response (conc 333.333 uM, ED Fig 3a): 0.043
